Source: US20030017195A1, “Method for oral drug delivery” (priority 2001, published 2003)

Legend:
[1] = Leakage of drug from patch edges; assay type: physicochemical; conditions: within 10 minutes
Text: In a regular patch without the microspheres structure, when the patch is cut into smaller pieces, drug in the reservoir layer easily leaks from along the breaking edges. In the presence of the microspheres structure, the breakpoint usually occurs between mircrospheres, which make it difficult for the drug to penetrate through the backing layer. So, with the help of microspheres structure, the leakage of drug from the patch can be substantially controlled. Though drug could leak from those microspheres along the edge, where their coating would possibly be broken, for microspheres located away from the edge no leakage can be seen. In a quantitative measurement, within 10 minutes, 60% of sulforhodamine B was lost from the edges in patch.without microspheres structure, while only 10% leaked in the presence of this microspheres structure.

[2] = assay type: in vitro ADME, rat
Method: The experiment was performed in an in vitro perfusion device.
Patches (2 mm×2 mm) were put into intestine lumen (3 cm in length). One end of the lumen was connected to an infusion inlet, while the other end was connected to a receiving tube. Phosphate buffer solution (PBS) was infused in a constant rate (0.05 ml/min) into the lumen. The entire device was placed on a magnetic stirrer panel, and samples were taken from PBS outside the lumen at predetermined time interval. […] This perfusion system mimics in-vivo intestine fluid movement.
Bioavailability of drug transport from these patches was calculated. Bioavailability refers to the ratio of the amount of drug transported across the intestine to the total amount of drug released at the site of absorption.

[3] = Unidirectional release of drug from compressed patches in diffusion cell (PBS); assay type: physicochemical
Method: (2) Unidirectional Release of Drug from Compressed Patches: Release of a model drug (Sulforhodamine B) from patches was measured in vitro into phosphate buffered saline (PBS, pH 7.4, 0.01 M). To distinguish drug release from the mucoadhesive side and the backing side of the patch, the patches were placed in a custom-designed diffusion cell. The cell comprised two chambers placed side-by-side with an opening provided between the chambers of about 3.14 mm^2. A patch (4 mm in diameter) was placed between the two chambers and each chamber was filled with 6 ml PBS. Vacuum grease was used to seal the joint to avoid leakage of PBS. Amount of sulforhodamine B released from either side of the patch into the solution was quantified at 565 nm using a spectrophotometer (UV-1601, Shimadzu Corporation).
To assess whether unidirectionality of release is also observed when the patch is placed on the intestine, the following experiments were performed. A section of pig intestine was placed on a diffusion cell such that the mucosal side faced the upper (donor) chamber. The donor chamber was filled with 2 ml PBS. Under these conditions, the thickness of the PBS layer on the intestine was about […]. A sulforhodamine-containing patch (4 mm in diameter) was prepared using methods described above was gently placed on the intestine. A stirring bar was placed on a mesh, which was placed about 1 cm above the patch. The receiver chamber was filled with 12 ml PBS. A stirring bar was placed in the receiver chamber. The cell was placed on a magnetic stirrer and stirred at 400 rpm for 120 minutes. Amount of sulforhodamine B released into donor and receiver chambers was measured using the same spectrophotometer described above. Percentages of sulforhodamine B delivered into the receiver and donor chambers were calculated (Figure 12). By measuring the total amount of sulforhodamine B released from the patch, the percent of sulforhodamine B delivered into the intestine was also calculated.

[4] = test system: non-diabetic rats; test: Intestinal delivery of insulin patches in non-diabetic rats (blood glucose); assay type: in vivo, Sprague Dawley (SD) rats; conditions: 10 IU/kg in the intestine
Method: Intestinal delivery of insulin patches in non-diabetic rats: All animal experiments were4conducted under aseptic conditions using institutionally approved protocols. Male Sprague Dawley (SD) rats, weighing 350-450 g fasted for 16 hours were anesthetized using gas anesthesia (1.25-4% isofluorane in oxygen). Rat intestine was exposed through a midline abdominal incision (2.0 cm). A small longitudinal incision (5 mm) was made about 5 cm from the proximal end of the small intestine. Patches (3-6 pieces, 2 mm in diameter) containing insulin (0.4-1.2 IU/patch, totally 5 IU/kg or 10 Iu/kg per rat) were randomly inserted through the opening into the lumen. The incisions were then sealed by surgical tissue (NEXABAND®, Veterinary Products Laboratories, Phoenix, Ariz.). […] Blood glucose level was measured using a glucometer (Excite® XL, Bayer Corporation, Elkhart, Ind.). […] The areas above the glucose curve (AAC) were calculated by the trapezoidal method (Carino G P, Jacob J S, Mathiowitz E. 2000. Nanosphere based oral insulin delivery. J Controlled Release 65:261-269). The apparent relative pharmacological bioavailability of insulin from non-diabetic rats was calculated by comparing the AAC following intestinal administration under different doses with that following subcutaneous administration.

Molecule | sulforhodamine B leaked from the edges ([1]; patch in the presence of microspheres structure) | sulforhodamine B lost from the edges ([1]; patch without microspheres structure) | fraction transported across rat intestine from patches compared to solution form [2] | difference in release profile when different compression pressures were used during patch preparation [3] | drug released from the backing side of the patch ([3]; 120 minutes, PBS pH 7.4) | drug released from the mucoadhesive side of the patch ([3]; 120 minutes, PBS pH 7.4) | share of released drug that was released from the mucoadhesive side ([3]; compressed patch) | hypoglycemia after administration in the intestine [4]
CCN(CC)c1ccc2c(-c3ccc(S(=O)(=O)O)cc3S(=O)(=O)[O-])c3ccc(=[N+](CC)CC)cc-3oc2c1 [sulforhodamine B] | 10% | 60% | higher fraction | no significant difference | less than 0.3% | about 10% | more than 97% | 
insulin solution: bovine insulin solution (pH 7), negative control administered in the intestine at 10 IU/kg |  |  |  |  |  |  |  | did not produce detectable hypoglycemia
